Results taken from article PMC7187762 (ACS chemical biology, 2018).
No end group written: not given here.

Tests used:
proteinase K = proteinase K (Parengyodontium album, UniProt P06873); test: Resistance to proteinase K digestion; details: isolated enzyme proteinase k
[1] = Temperature-dependent circular dichroism; assay type: physicochemical; details: CD; at 95°C

Chain of proteinase K (P06873 106-384, species assumed): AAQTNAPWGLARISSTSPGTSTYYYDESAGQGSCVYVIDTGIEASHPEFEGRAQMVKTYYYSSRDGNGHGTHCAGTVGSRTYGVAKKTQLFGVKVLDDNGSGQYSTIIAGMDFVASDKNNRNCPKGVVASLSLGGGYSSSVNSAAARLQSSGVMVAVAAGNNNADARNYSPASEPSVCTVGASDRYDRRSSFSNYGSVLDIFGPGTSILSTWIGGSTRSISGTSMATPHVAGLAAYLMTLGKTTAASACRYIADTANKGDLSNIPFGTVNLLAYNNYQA

| Substance | half-life (proteinase K) | decrease in spectral intensity at 215 nm [1] |
| --- | --- | --- |
| Ac-TWNPATGKWT-NH2 [HP7Δ] | 0.6 min | – |
| KTWNPATGKWTE [HP7] | 2 min | – |
| NS1 HBS: HBS-stabilized β-hairpin derived from the Ras-binding NS1 monobody (GGWKGQVYYVG; HBS hydrogen bond surrogate constraint) | – | 25% |
